Columns and labels:
[1] = target: T1, Glutamate receptor 1 (Homo sapiens, UniProt P42261); assay: Activity at human recombinant GluA1 receptor flip isoform expressed in HEK293 cells assessed as effect on glutamate-induced calcium flux by Fluo-4/AM staining-based fluorescence assay; format: cell-based
[2] = target: T2, Glutamate receptor 2 (Homo sapiens, UniProt P42262); assay: Activity at human recombinant GluA2 flop isoform expressed in HEK203 cells assessed as blocked of receptor desensitization
[3] = target: T2, Glutamate receptor 2; assay: Activity at human recombinant GluA2 flip isoform expressed in HEK203 cells assessed as blocked of receptor desensitization
[4] = target: T2, Glutamate receptor 2; assay: Activity at human recombinant GluA2 receptor flip isoform expressed in HEK293 cells assessed as effect on glutamate-induced calcium flux by Fluo-4/AM staining-based fluorescence assay; format: cell-based
[5] = target: T3, Glutamate receptor 3 (Homo sapiens, UniProt P42263); assay: Activity at human recombinant GluA3 receptor flip isoform expressed in HEK293 cells assessed as effect on glutamate-induced calcium flux by Fluo-4/AM staining-based fluorescence assay; format: cell-based
[6] = Activity at human recombinant GluA4 receptor flip isoform expressed in HEK293 cells assessed as effect on glutamate-induced calcium flux by Fluo-4/AM staining-based fluorescence assay; format: cell-based
[7] = target: T2, Glutamate receptor 2; assay: Activity at human recombinant GluA2 receptor flop isoform expressed in HEK293 cells assessed as effect on glutamate-induced calcium flux by Fluo-4/AM staining-based fluorescence assay; format: cell-based
[8] = target: T3, Glutamate receptor 3; assay: Inhibition of recombinant GluA3 receptor flip isoform expressed in Xenopus oocytes assessed as inhibition of […] uM kainate-induced current by patch clamp electrophysiological assay; format: cell-based, Oocyte
[9] = target: T4, Glutamate receptor AMPA 1/2 (Homo sapiens, UniProt P42261+P42262); assay: Activity at recombinant GluA1A2 receptor flop isoform expressed in Xenopus oocytes assessed as effect of 100 uM kainate-induced current by patch clamp electrophysiological assay; format: cell-based, Oocyte
[10] = target: Glutamate receptor AMPA 1/2 (Rattus norvegicus, UniProt P19490+P19491); format: cell-based, Oocyte
[11] = target: Glutamate receptor 4 (Homo sapiens, UniProt P48058); assay: Inhibition of GluA4 receptor expressed in Xenopus oocytes assessed as inhibition of […] uM kainate-induced current by patch clamp electrophysiological assay; format: cell-based, Oocyte
[12] = target: Glutamate receptor 1 (Rattus norvegicus, UniProt P19490); format: cell-based, Oocyte
[13] = Inhibition of recombinant GluA4 receptor flip isoform expressed in Xenopus oocytes assessed as inhibition of […] uM kainate-induced current by patch clamp electrophysiological assay; format: cell-based; conditions: Oocyte
[14] = target: T4, Glutamate receptor AMPA 1/2; format: cell-based, Oocyte
[15] = target: T1, Glutamate receptor 1; assay: Activity at recombinant GluA1 receptor flop isoform expressed in Xenopus oocytes assessed as effect of 100 uM kainate-induced current by patch clamp electrophysiological assay; format: cell-based, Oocyte
[16] = target: T1, Glutamate receptor 1; format: cell-based, Oocyte
[17] = target: T1, Glutamate receptor 1; format: cell-based, Oocyte; remark: listed apart in the source
[18] = target: T3, Glutamate receptor 3; assay: Inhibition of GluA3 receptor expressed in Xenopus oocytes assessed as inhibition of […] uM kainate-induced current by patch clamp electrophysiological assay; format: cell-based, Oocyte
[19] = target: T5, Glutamate receptor AMPA 2/3 (Homo sapiens) (UniProt P42263+P42262); conditions: Oocyte; at 100 µM
[20] = target: T2, Glutamate receptor 2; conditions: Oocyte; at 100 µM
[21] = target: T3, Glutamate receptor 3; conditions: Oocyte; at 100 µM
[22] = target: T1, Glutamate receptor 1; assay: Inhibition of recombinant GluA1 receptor flip isoform expressed in Xenopus oocytes assessed as inhibition of […] uM glutamate-induced current; format: cell-based, Oocyte
[23] = target: T6, Glutamate receptor AMPA 1/2 (Homo sapiens) (UniProt P42262+P42261); conditions: Oocyte; at 100 µM
[24] = target: T4, Glutamate receptor AMPA 1/2; assay: Inhibition of recombinant GluA1A2 receptor flip isoform expressed in Xenopus oocytes assessed as inhibition of […] uM glutamate-induced current; format: cell-based, Oocyte
[25] = target: T1, Glutamate receptor 1; conditions: Oocyte; at 100 µM
[26] = target: T1, Glutamate receptor 1; assay: Activity at recombinant GluA1 receptor flip isoform expressed in Xenopus oocytes assessed as potentiation of 10 uM AMPA-induced current at 100 uM relative to control; format: cell-based; conditions: Oocyte
[27] = target: T6, Glutamate receptor AMPA 1/2 (Homo sapiens); assay: Activity at recombinant GluA1A2 receptor flip isoform expressed in Xenopus oocytes assessed as potentiation of glutamate-induced current at 100 uM relative to control; format: cell-based; conditions: Oocyte
[28] = target: T1, Glutamate receptor 1; assay: Activity at recombinant GluA1 receptor flop isoform expressed in Xenopus oocytes assessed as potentiation of 10 uM AMPA-induced current at 100 uM relative to control; format: cell-based; conditions: Oocyte
[29] = target: T6, Glutamate receptor AMPA 1/2 (Homo sapiens); assay: Activity at recombinant GluA1A2 receptor flop isoform expressed in Xenopus oocytes assessed as potentiation of 10 uM AMPA-induced current at 100 uM relative to control; format: cell-based; conditions: Oocyte
[30] = Activity at recombinant GluA2A4 receptor flop isoform expressed in Xenopus oocytes assessed as effect on 300 uM glutamate-induced current; format: cell-based; conditions: Oocyte
[31] = Activity at recombinant GluA2A4 receptor flip isoform expressed in Xenopus oocytes assessed as effect on 300 uM glutamate-induced current; format: cell-based; conditions: Oocyte
[32] = target: T5, Glutamate receptor AMPA 2/3 (Homo sapiens); assay: Activity at recombinant GluA2 receptor flop/GluA3 receptor flip isoform expressed in Xenopus oocytes assessed as potentiation of 10 uM AMPA-induced current at 100 uM relative to control; format: cell-based; conditions: Oocyte
[33] = Activity at recombinant GluA4 receptor flip isoform expressed in Xenopus oocytes assessed as effect on 300 uM glutamate-induced current; format: cell-based; conditions: Oocyte
[34] = target: T4, Glutamate receptor AMPA 1/2; assay: Activity at recombinant GluA1A2 receptor flip isoform expressed in Xenopus oocytes assessed as effect on 300 uM glutamate-induced current; format: cell-based, Oocyte
[35] = target: T6, Glutamate receptor AMPA 1/2 (Homo sapiens); assay: Activity at recombinant GluA1A2 receptor flop isoform expressed in Xenopus oocytes assessed as potentiation of glutamate-induced current at 100 uM relative to control; format: cell-based; conditions: Oocyte
[36] = target: T4, Glutamate receptor AMPA 1/2; assay: Activity at recombinant GluA1A2 receptor flop isoform expressed in Xenopus oocytes assessed as effect on 300 uM glutamate-induced current; format: cell-based, Oocyte
[37] = target: T6, Glutamate receptor AMPA 1/2 (Homo sapiens); assay: Activity at recombinant GluA1 receptor flip/GluA2 receptor flop isoform expressed in Xenopus oocytes assessed as potentiation of 10 uM AMPA-induced current at 100 uM relative to control; format: cell-based; conditions: Oocyte
[38] = target: T3, Glutamate receptor 3; assay: Activity at recombinant GluA3 receptor flop isoform expressed in Xenopus oocytes assessed as potentiation of 10 uM AMPA-induced current at 100 uM relative to control; format: cell-based; conditions: Oocyte
[39] = target: T3, Glutamate receptor 3; assay: Activity at recombinant GluA3 receptor flip isoform expressed in Xenopus oocytes assessed as potentiation of 10 uM AMPA-induced current at 100 uM relative to control; format: cell-based; conditions: Oocyte
[40] = target: T1, Glutamate receptor 1; assay: Agonist activity at recombinant GluA1 receptor flip isoform expressed in Xenopus oocytes; format: functional, cell-based, Oocyte
[41] = target: T5, Glutamate receptor AMPA 2/3 (Homo sapiens); assay: Activity at recombinant GluA2A3 receptor flop isoform expressed in Xenopus oocytes assessed as potentiation of 10 uM AMPA-induced current at 100 uM relative to control; format: cell-based; conditions: Oocyte
[42] = target: T1, Glutamate receptor 1; assay: Activity at recombinant GluA1 receptor flip isoform expressed in Xenopus oocytes co-expressing gamma2-TARP assessed as effect on 10 uM glutamate-induced current by voltage-clamp electrophysiological assay; format: cell-based, Oocyte
[43] = target: T1, Glutamate receptor 1; assay: Activity at recombinant GluA1 receptor flip isoform expressed in Xenopus oocytes assessed as potentiation of glutamate-induced current at 100 uM relative to control; format: cell-based; conditions: Oocyte
[44] = target: T6, Glutamate receptor AMPA 1/2 (Homo sapiens); assay: Activity at recombinant GluA1 receptor flop/GluA2 receptor flip isoform expressed in Xenopus oocytes assessed as potentiation of 10 uM AMPA-induced current at 100 uM relative to control; format: cell-based; conditions: Oocyte
[45] = target: T3, Glutamate receptor 3; assay: Activity at recombinant GluA3 receptor flip isoform expressed in Xenopus oocytes assessed as potentiation of glutamate-induced current at 100 uM relative to control; format: cell-based; conditions: Oocyte
[46] = target: T5, Glutamate receptor AMPA 2/3 (Homo sapiens); assay: Activity at recombinant GluA2 receptor flip/GluA3 receptor flop isoform expressed in Xenopus oocytes assessed as potentiation of 10 uM AMPA-induced current at 100 uM relative to control; format: cell-based; conditions: Oocyte
[47] = target: Glutamate receptor 4 (Rattus norvegicus) (UniProt P19493); assay: Activity at recombinant GluA4 receptor flip isoform expressed in Xenopus oocytes assessed as potentiation of glutamate-induced current at 100 uM relative to control; conditions: Oocyte
[48] = target: T1, Glutamate receptor 1; assay: Activity at recombinant GluA1 receptor flop isoform expressed in Xenopus oocytes assessed as potentiation of glutamate-induced current at 100 uM relative to control; format: cell-based; conditions: Oocyte
[49] = target: T1, Glutamate receptor 1; assay: Activity at recombinant GluA1 receptor flop isoform expressed in Xenopus oocytes co-expressing gamma2-TARP assessed as effect on 10 uM glutamate-induced current by voltage-clamp electrophysiological assay; format: cell-based, Oocyte
[50] = target: T2, Glutamate receptor 2; assay: Activity at recombinant GluA2 receptor flip isoform expressed in Xenopus oocytes co-expressing gamma2-TARP assessed as effect on glutamate/trichloromethiazide-induced current; format: cell-based, Oocyte
[51] = target: T1, Glutamate receptor 1; assay: Activity at recombinant GluA1 receptor flip isoform expressed in Xenopus oocytes co-expressing gamma2-TARP assessed as effect on glutamate/trichloromethiazide-induced current; format: cell-based, Oocyte
[52] = target: T1, Glutamate receptor 1; format: cell-based, Oocyte; remark: listed apart in the source
[53] = target: T3, Glutamate receptor 3; conditions: Oocyte; at 0.5 µM
[54] = tested on: Oocyte; conditions: at 0.5 µM
[55] = target: T3, Glutamate receptor 3; assay: Inhibition of recombinant GluA3 receptor flop isoform expressed in Xenopus oocytes assessed as inhibition of […] uM kainate-induced current by patch clamp electrophysiological assay; format: cell-based, Oocyte

T3 sequence (P42263 whole entry, canonical isoform): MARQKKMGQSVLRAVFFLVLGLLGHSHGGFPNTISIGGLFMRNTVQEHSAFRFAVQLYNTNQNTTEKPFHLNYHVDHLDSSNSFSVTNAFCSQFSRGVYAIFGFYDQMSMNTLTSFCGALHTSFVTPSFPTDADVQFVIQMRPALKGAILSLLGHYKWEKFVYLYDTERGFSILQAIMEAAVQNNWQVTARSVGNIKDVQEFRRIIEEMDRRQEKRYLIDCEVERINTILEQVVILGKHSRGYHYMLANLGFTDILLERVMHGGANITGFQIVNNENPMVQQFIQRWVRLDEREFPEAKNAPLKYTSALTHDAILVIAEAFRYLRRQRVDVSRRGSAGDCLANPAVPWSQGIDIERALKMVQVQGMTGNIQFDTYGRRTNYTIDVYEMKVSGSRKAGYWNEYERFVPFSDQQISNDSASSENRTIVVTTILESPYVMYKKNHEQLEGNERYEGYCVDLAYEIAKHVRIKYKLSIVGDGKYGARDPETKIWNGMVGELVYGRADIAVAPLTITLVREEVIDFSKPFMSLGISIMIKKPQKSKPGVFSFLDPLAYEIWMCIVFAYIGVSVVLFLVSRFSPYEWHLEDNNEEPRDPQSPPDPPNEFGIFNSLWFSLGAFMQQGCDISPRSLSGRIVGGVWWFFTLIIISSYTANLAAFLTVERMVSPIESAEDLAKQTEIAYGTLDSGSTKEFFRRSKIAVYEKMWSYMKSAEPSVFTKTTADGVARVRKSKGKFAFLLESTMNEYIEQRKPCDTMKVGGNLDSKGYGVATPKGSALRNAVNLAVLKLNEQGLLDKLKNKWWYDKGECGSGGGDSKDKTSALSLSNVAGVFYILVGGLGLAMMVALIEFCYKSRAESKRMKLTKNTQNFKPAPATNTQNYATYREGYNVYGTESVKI
T2 sequence (P42262 whole entry, canonical isoform): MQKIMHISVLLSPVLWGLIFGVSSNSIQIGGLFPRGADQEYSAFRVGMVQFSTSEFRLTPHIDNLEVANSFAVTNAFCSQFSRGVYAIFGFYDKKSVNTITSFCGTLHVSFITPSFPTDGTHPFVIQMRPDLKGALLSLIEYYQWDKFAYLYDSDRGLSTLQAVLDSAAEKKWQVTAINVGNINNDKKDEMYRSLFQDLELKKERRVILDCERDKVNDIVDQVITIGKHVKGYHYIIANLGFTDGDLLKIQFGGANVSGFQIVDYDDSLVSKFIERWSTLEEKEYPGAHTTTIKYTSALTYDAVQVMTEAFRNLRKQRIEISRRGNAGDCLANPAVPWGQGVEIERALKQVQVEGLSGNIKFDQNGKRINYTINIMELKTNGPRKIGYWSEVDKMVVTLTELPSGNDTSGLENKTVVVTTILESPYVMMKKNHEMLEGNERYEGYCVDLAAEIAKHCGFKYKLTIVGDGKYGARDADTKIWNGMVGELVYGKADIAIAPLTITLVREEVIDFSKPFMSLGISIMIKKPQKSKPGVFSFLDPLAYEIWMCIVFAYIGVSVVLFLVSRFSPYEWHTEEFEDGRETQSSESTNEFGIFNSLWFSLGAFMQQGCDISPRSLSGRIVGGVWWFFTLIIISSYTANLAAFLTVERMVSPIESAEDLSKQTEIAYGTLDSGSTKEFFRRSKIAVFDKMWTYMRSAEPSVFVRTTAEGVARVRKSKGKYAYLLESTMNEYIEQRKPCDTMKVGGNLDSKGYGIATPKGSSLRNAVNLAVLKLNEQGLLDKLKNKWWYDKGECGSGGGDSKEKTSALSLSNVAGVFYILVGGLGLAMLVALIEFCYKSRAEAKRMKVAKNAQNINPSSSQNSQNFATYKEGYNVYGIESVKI
T4 sequence (P42262 whole entry, canonical isoform): as above
T4 sequence (P42261 whole entry, canonical isoform): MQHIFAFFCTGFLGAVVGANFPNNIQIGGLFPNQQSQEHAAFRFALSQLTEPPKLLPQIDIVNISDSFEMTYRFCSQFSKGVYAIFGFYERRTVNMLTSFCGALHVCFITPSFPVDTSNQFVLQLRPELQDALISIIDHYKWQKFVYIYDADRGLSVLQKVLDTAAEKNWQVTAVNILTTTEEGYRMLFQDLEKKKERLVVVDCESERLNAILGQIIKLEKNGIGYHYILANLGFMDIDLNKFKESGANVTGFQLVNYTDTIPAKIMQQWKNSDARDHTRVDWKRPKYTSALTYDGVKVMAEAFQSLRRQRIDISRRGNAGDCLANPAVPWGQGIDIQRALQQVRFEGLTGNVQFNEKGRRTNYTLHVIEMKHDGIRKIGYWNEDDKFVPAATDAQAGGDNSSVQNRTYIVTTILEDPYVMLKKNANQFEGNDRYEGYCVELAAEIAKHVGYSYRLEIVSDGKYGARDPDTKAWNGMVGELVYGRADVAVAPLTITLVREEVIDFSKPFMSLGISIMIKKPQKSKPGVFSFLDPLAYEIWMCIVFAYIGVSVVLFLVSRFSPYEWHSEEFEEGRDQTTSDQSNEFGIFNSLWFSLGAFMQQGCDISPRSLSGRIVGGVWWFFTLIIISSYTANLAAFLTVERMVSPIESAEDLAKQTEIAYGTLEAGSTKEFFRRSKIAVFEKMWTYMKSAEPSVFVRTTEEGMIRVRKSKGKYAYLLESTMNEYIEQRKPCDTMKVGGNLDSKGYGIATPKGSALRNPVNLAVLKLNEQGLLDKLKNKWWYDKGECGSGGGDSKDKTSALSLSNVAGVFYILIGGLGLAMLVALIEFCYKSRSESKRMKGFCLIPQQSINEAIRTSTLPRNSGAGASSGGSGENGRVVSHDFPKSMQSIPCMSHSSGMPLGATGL
T1 sequence (P42261 whole entry, canonical isoform): as above
Sequence of Glutamate receptor AMPA 1/2 (Rattus norvegicus, UniProt P19490+P19491) (P19491 whole entry): as the sequence (P42262 whole entry, canonical isoform) above, with M191T, T291A, R764G, A852P counted along it
Sequence of Glutamate receptor AMPA 1/2 (Rattus norvegicus, UniProt P19490+P19491) (P19490 whole entry): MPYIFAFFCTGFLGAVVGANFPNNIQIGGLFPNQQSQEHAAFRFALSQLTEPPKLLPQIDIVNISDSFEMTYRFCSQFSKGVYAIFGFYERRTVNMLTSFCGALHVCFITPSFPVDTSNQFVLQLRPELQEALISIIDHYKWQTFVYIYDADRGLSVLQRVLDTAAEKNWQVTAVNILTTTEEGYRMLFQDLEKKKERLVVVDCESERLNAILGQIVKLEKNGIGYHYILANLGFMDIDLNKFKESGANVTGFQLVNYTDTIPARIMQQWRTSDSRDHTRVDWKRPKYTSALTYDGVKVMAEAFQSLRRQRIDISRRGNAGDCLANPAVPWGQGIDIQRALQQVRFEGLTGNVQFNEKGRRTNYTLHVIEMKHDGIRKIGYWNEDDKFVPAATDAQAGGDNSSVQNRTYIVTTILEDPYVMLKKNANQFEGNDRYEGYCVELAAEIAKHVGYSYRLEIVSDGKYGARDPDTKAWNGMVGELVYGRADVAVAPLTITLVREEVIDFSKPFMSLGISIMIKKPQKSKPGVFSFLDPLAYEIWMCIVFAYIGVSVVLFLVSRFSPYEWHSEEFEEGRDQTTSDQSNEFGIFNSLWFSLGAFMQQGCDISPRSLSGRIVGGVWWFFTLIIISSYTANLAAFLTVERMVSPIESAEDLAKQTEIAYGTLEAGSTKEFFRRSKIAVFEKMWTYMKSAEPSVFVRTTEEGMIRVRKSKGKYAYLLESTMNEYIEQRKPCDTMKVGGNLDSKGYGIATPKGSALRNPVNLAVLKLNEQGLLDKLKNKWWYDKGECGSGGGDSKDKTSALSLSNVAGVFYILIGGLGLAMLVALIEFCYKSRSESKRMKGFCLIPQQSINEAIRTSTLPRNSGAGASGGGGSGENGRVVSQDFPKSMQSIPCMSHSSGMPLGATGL
Sequence of Glutamate receptor 4 (P48058 whole entry): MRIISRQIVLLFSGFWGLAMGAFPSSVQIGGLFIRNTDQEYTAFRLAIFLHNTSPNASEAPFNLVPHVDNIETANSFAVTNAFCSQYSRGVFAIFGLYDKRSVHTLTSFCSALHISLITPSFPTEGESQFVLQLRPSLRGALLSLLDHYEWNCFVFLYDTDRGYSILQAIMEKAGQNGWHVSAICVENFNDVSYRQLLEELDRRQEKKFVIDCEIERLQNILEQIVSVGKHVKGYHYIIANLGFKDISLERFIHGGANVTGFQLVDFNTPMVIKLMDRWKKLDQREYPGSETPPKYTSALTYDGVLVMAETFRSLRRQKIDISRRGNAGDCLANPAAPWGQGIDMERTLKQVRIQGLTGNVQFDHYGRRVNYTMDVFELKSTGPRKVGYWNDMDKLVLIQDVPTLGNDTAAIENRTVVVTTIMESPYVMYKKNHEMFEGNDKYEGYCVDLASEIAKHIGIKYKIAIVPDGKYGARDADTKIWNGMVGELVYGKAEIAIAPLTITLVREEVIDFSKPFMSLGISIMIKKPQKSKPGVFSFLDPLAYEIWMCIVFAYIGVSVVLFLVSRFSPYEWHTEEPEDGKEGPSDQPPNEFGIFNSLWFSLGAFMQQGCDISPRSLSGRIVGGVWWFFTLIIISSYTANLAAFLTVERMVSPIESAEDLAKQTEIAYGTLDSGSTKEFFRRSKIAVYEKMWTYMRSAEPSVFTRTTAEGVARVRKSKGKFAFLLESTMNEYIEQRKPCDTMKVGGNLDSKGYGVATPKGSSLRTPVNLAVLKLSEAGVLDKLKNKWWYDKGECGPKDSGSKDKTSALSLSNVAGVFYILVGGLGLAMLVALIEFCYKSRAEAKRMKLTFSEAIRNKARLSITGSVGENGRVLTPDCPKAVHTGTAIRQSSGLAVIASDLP
Sequence of Glutamate receptor 1 (Rattus norvegicus, UniProt P19490) (P19490 whole entry, canonical isoform): as the sequence (P19490 whole entry) above

## CC(CNS(=O)(=O)C(C)C)C1CCC(c2ccc(C#N)cc2)CC1 (stereo not given)
[1]
  EC50: 5.65 µM
[2]
  EC50: 1.44 µM
[3]
  EC50: 15 µM
[4]
  EC50: 0.15 µM
[5]
  EC50: 1.66 µM
[6]
  EC50: 0.21 µM
[7]
  EC50: 1.44 µM

## N=C(N)NCCC[C@H](N)C(=O)NCCCNCCCNCCCCCNC(=O)[C@H](CC(N)=O)NC(=O)Cc1ccc(O)cc1O
[8]
  IC50: 0.23 µM
[9]
  IC50: 300 µM
[10]
  IC50: 300 µM
[11]
  IC50: 0.43 µM
[12]
  IC50: 3.4 µM
[13]
  IC50: 0.43 µM
[14]
  IC50: 5.5 µM
[15]
  IC50: 3.4 µM
[16]
  IC50: 0.35 µM
[17]
  IC50: 0.35 µM
[18]
  IC50: 0.23 µM

## CCCC(=O)N[C@@H](Cc1ccc(O)cc1)C(=O)NCCCCCCCNCCCCN
[19]
  inhibition: 2.6%
[20]
  inhibition: 2.1%
[21]
  inhibition: 100%
[22]
  Ki: 0.168 µM
[23]
  inhibition: 84.3%
[24]
  Ki: 1.6 µM
[25]
  inhibition: 100%

## NS(=O)(=O)c1cc2c(cc1Cl)NC(C1CC3C=CC1C3)NS2(=O)=O (stereo not given) [CYCLOTHIAZIDE]
[26]
  fold change (FC): 5.31
[27]
  fold change (FC): 137
[28]
  fold change (FC): 1.34
[29]
  fold change (FC): 3.53
[30]
  EC50: > 91 µM
[31]
  EC50: 5 µM
[32]
  fold change (FC): 6.83
[33]
  EC50: 5.9 µM
[34]
  EC50: 6.6 µM
[35]
  fold change (FC): 61
[36]
  EC50: > 76 µM
[1]
  EC50: 19.8 µM
[37]
  fold change (FC): 19.9
[38]
  fold change (FC): 5.59
[39]
  fold change (FC): 3.59
[40]
  EC50: 1 µM
[41]
  fold change (FC): 10.5
[42]
  EC50: 2 µM
[43]
  fold change (FC): 103
[44]
  fold change (FC): 11.6
[45]
  fold change (FC): 69
[46]
  fold change (FC): 7.18
[4]
  EC50: 2.24 µM
[47]
  fold change (FC): 171
[5]
  EC50: 13.7 µM
[6]
  EC50: 3.91 µM
[7]
  EC50: > 100 µM
[48]
  fold change (FC): 22
[49]
  EC50: 10 µM

## CNC(=O)N1N=C(c2ccc(N)cc2)c2cc3c(cc2CC1C)OCO3 (stereo not given) [GYKI-53655]
[50]
  EC50: 100 µM
[51]
  EC50: 28 µM

## NCCCNCCCCNCCC(=O)NCCCCCNC(=O)[C@H](CC(N)=O)NC(=O)Cc1ccc(O)cc1O [JORO SPIDER TOXIN 3]
[52]
  IC50: 0.04 µM
[53]
  inhibition: 96%
[54]
  inhibition: 82%
[55]
  IC50: 0.03 µM

Source: ChEMBL document CHEMBL1157033, “Developing a complete pharmacology for AMPA receptors: a perspective on subtype-selective ligands” (Bioorg Med Chem, 2010)
